Measurements published in ChEMBL document CHEMBL1201862, “PubChem BioAssay data set” (2004).
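Protocol summary: plate cells (96-well), add compound at 5 concentrations, incubate 48 h, interpolate endpoints linearly. GI50 is the concentration that inhibits growth by half.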 Active and inactive are the calls of the source. Rule as the data show it: active = GI50 up to about 1.1 µM and inactive = higher.

Experiments:
Experiment in all cases: NCI-60 cell line screen, 48 h
SR = tested on: SR
NCI-H23 = tested on: NCI-H23
SW-620 = tested on: SW-620
HOP-92 = tested on: HOP-92
SK-OV-3 = tested on: SK-OV-3
OVCAR-3 = tested on: OVCAR-3
MDA-MB-435 = tested on: MDA-MB-435
SF-539 = tested on: SF-539
OVCAR-5 = tested on: OVCAR-5
COLO 205 = tested on: COLO 205
HT-29 = tested on: HT-29
SN12C = tested on: SN12C
NCI-H460 = tested on: NCI-H460
DU-145 = tested on: DU-145
BT-549 = tested on: BT-549
HCC 2998 = tested on: HCC 2998
UO-31 = tested on: UO-31
EKVX = tested on: EKVX
Hs-578T = tested on: Hs-578T
SK-MEL-5 = tested on: SK-MEL-5
SF-295 = tested on: SF-295
LOX IMVI = tested on: LOX IMVI
SNB-19 = tested on: SNB-19
MDA-MB-231 = tested on: MDA-MB-231
RPMI-8226 = tested on: RPMI-8226
T47D = tested on: T47D
HCT-116 = tested on: HCT-116
SNB-75 = tested on: SNB-75
OVCAR-8 = tested on: OVCAR-8
U-251 = tested on: U-251
SK-MEL-2 = tested on: SK-MEL-2
NCI-H522 = tested on: NCI-H522
SK-MEL-28 = tested on: SK-MEL-28
PC-3 = tested on: PC-3
MDA-N = tested on: MDA-N
A498 = tested on: A498
HOP-62 = tested on: HOP-62
HCT-15 = tested on: HCT-15
786-0 = tested on: 786-0
CAKI-1 = tested on: CAKI-1
Malme-3M = tested on: Malme-3M
K562 = tested on: K562
OVCAR-4 = tested on: OVCAR-4
CCRF-CEM = tested on: CCRF-CEM
NCI/ADR-RES = tested on: NCI/ADR-RES
MOLT-4 = tested on: MOLT-4
SF-268 = tested on: SF-268
UACC-257 = tested on: UACC-257
ACHN = tested on: ACHN
KM12 = tested on: KM12
UACC-62 = tested on: UACC-62
RXF 393 = tested on: RXF 393
TK-10 = tested on: TK-10
IGROV-1 = tested on: IGROV-1
M14 = tested on: M14
NCI-H226 = tested on: NCI-H226
A549 = tested on: A549
MCF7 = tested on: MCF7
HL-60 = tested on: HL-60

Structure (SMILES): O=C1C(Cl)=C(N2CCOCC2)C(=O)c2c(O)ccc(O)c21
- GI50 (SR): 1.4 µM (inactive)
- GI50 (NCI-H23): 0.255 µM (active)
- GI50 (SW-620): 0.156 µM (active)
- GI50 (HOP-92): 0.291 µM (active)
- GI50 (SK-OV-3): 2.81 µM (inactive)
- GI50 (OVCAR-3): 0.385 µM (active)
- GI50 (MDA-MB-435): 0.204 µM (active)
- GI50 (SF-539): 0.486 µM (active)
- GI50 (OVCAR-5): 0.497 µM (active)
- GI50 (COLO 205): 0.19 µM (active)
- GI50 (HT-29): 0.233 µM (active)
- GI50 (SN12C): 0.207 µM (active)
- GI50 (NCI-H460): 0.881 µM (active)
- GI50 (DU-145): 1.53 µM (inactive)
- GI50 (BT-549): 0.173 µM (active)
- GI50 (HCC 2998): 1.67 µM (inactive)
- GI50 (UO-31): 0.351 µM (active)
- GI50 (EKVX): 1.46 µM (inactive)
- GI50 (Hs-578T): 0.859 µM (active)
- GI50 (SK-MEL-5): 0.316 µM (active)
- GI50 (SF-295): 1.64 µM (inactive)
- GI50 (LOX IMVI): 0.186 µM (active)
- GI50 (SNB-19): 1.78 µM (inactive)
- GI50 (MDA-MB-231): 0.216 µM (active)
- GI50 (RPMI-8226): 1.84 µM (inactive)
- GI50 (T47D): 0.839 µM (active)
- GI50 (HCT-116): 0.213 µM (active)
- GI50 (SNB-75): 0.667 µM (active)
- GI50 (OVCAR-8): 0.368 µM (active)
- GI50 (U-251): 0.925 µM (active)
- GI50 (SK-MEL-2): 0.288 µM (active)
- GI50 (NCI-H522): 0.286 µM (active)
- GI50 (SK-MEL-28): 0.288 µM (active)
- GI50 (PC-3): 0.536 µM (active)
- GI50 (MDA-N): 0.176 µM (active)
- GI50 (A498): 1.63 µM (inactive)
- GI50 (HOP-62): 0.853 µM (active)
- GI50 (HCT-15): 0.155 µM
- GI50 (786-0): 0.296 µM (active)
- GI50 (CAKI-1): 0.433 µM (active)
- GI50 (Malme-3M): 0.223 µM (active)
- GI50 (K562): 10 µM (inactive)
- GI50 (OVCAR-4): 0.256 µM (active)
- GI50 (CCRF-CEM): 0.473 µM (active)
- GI50 (NCI/ADR-RES): 0.366 µM (active)
- GI50 (MOLT-4): 1.35 µM (inactive)
- GI50 (SF-268): 1.36 µM (inactive)
- GI50 (UACC-257): 0.33 µM (active)
- GI50 (ACHN): 0.263 µM (active)
- GI50 (KM12): 1.64 µM (inactive)
- GI50 (UACC-62): 0.729 µM (active)
- GI50 (RXF 393): 0.222 µM (active)
- GI50 (TK-10): 0.638 µM (active)
- GI50 (IGROV-1): 0.612 µM (active)
- GI50 (M14): 0.182 µM (active)
- GI50 (NCI-H226): 1.83 µM (inactive)
- GI50 (A549): 1.98 µM (inactive)
- GI50 (MCF7): 0.213 µM (active)

Structure (SMILES): OCCOc1ccccc2cccc1-2
- GI50 (SR): 80 µM (inactive)
- GI50 (NCI-H23): > 100 µM (inactive)
- GI50 (SW-620): > 100 µM (inactive)
- GI50 (HOP-92): > 100 µM (inactive)
- GI50 (SK-OV-3): > 100 µM (inactive)
- GI50 (OVCAR-3): > 100 µM (inactive)
- GI50 (MDA-MB-435): > 100 µM (inactive)
- GI50 (SF-539): > 100 µM (inactive)
- GI50 (OVCAR-5): > 100 µM (inactive)
- GI50 (COLO 205): > 100 µM (inactive)
- GI50 (HT-29): > 100 µM (inactive)
- GI50 (SN12C): > 100 µM (inactive)
- GI50 (NCI-H460): 73.6 µM (inactive)
- GI50 (DU-145): > 100 µM (inactive)
- GI50 (BT-549): > 100 µM (inactive)
- GI50 (HCC 2998): > 100 µM (inactive)
- GI50 (UO-31): > 100 µM (inactive)
- GI50 (EKVX): > 100 µM (inactive)
- GI50 (Hs-578T): > 100 µM (inactive)
- GI50 (SK-MEL-5): > 100 µM (inactive)
- GI50 (SF-295): > 100 µM (inactive)
- GI50 (LOX IMVI): > 100 µM (inactive)
- GI50 (SNB-19): > 100 µM (inactive)
- GI50 (MDA-MB-231): > 100 µM (inactive)
- GI50 (RPMI-8226): 61.8 µM (inactive)
- GI50 (T47D): 47.1 µM (inactive)
- GI50 (HCT-116): > 100 µM (inactive)
- GI50 (SNB-75): > 100 µM (inactive)
- GI50 (OVCAR-8): > 100 µM (inactive)
- GI50 (U-251): > 100 µM (inactive)
- GI50 (SK-MEL-2): > 100 µM (inactive)
- GI50 (NCI-H522): > 100 µM (inactive)
- GI50 (SK-MEL-28): > 100 µM (inactive)
- GI50 (PC-3): > 100 µM (inactive)
- GI50 (MDA-N): > 100 µM (inactive)
- GI50 (A498): > 100 µM (inactive)
- GI50 (HOP-62): > 100 µM (inactive)
- GI50 (HCT-15): > 100 µM
- GI50 (786-0): > 100 µM (inactive)
- GI50 (HL-60): > 100 µM (inactive)
- GI50 (CAKI-1): > 100 µM (inactive)
- GI50 (Malme-3M): > 100 µM (inactive)
- GI50 (K562): 84.7 µM (inactive)
- GI50 (OVCAR-4): 34 µM (inactive)
- GI50 (CCRF-CEM): > 100 µM (inactive)
- GI50 (NCI/ADR-RES): > 100 µM (inactive)
- GI50 (SF-268): > 100 µM (inactive)
- GI50 (UACC-257): > 100 µM (inactive)
- GI50 (ACHN): > 100 µM (inactive)
- GI50 (KM12): > 100 µM (inactive)
- GI50 (UACC-62): > 100 µM (inactive)
- GI50 (TK-10): > 100 µM (inactive)
- GI50 (IGROV-1): > 100 µM (inactive)
- GI50 (M14): > 100 µM (inactive)
- GI50 (NCI-H226): > 100 µM (inactive)
- GI50 (A549): > 100 µM (inactive)
- GI50 (MCF7): > 100 µM (inactive)

Structure (SMILES): O=C(CCc1cc(O)cc(O)c1)NCCc1cc(O)cc(O)c1
- GI50 (SR): > 100 µM (inactive)
- GI50 (NCI-H23): > 100 µM (inactive)
- GI50 (SW-620): > 100 µM (inactive)
- GI50 (HOP-92): > 100 µM (inactive)
- GI50 (SK-OV-3): > 100 µM (inactive)
- GI50 (OVCAR-3): > 100 µM (inactive)
- GI50 (MDA-MB-435): > 100 µM (inactive)
- GI50 (SF-539): > 100 µM (inactive)
- GI50 (OVCAR-5): > 100 µM (inactive)
- GI50 (COLO 205): > 100 µM (inactive)
- GI50 (HT-29): > 100 µM (inactive)
- GI50 (SN12C): > 100 µM (inactive)
- GI50 (NCI-H460): > 100 µM (inactive)
- GI50 (DU-145): > 100 µM (inactive)
- GI50 (BT-549): > 100 µM (inactive)
- GI50 (HCC 2998): > 100 µM (inactive)
- GI50 (UO-31): > 100 µM (inactive)
- GI50 (EKVX): > 100 µM (inactive)
- GI50 (Hs-578T): > 100 µM (inactive)
- GI50 (SK-MEL-5): > 100 µM (inactive)
- GI50 (SF-295): > 100 µM (inactive)
- GI50 (LOX IMVI): > 100 µM (inactive)
- GI50 (SNB-19): > 100 µM (inactive)
- GI50 (MDA-MB-231): > 100 µM (inactive)
- GI50 (RPMI-8226): > 100 µM (inactive)
- GI50 (T47D): > 100 µM (inactive)
- GI50 (HCT-116): > 100 µM (inactive)
- GI50 (SNB-75): > 100 µM (inactive)
- GI50 (OVCAR-8): > 100 µM (inactive)
- GI50 (U-251): > 100 µM (inactive)
- GI50 (SK-MEL-2): > 100 µM (inactive)
- GI50 (NCI-H522): > 100 µM (inactive)
- GI50 (SK-MEL-28): > 100 µM (inactive)
- GI50 (PC-3): > 100 µM (inactive)
- GI50 (MDA-N): > 100 µM (inactive)
- GI50 (A498): > 100 µM (inactive)
- GI50 (HOP-62): > 100 µM (inactive)
- GI50 (HCT-15): > 100 µM
- GI50 (786-0): > 100 µM (inactive)
- GI50 (CAKI-1): > 100 µM (inactive)
- GI50 (K562): > 100 µM (inactive)
- GI50 (CCRF-CEM): > 10 µM (inactive)
- GI50 (NCI/ADR-RES): > 100 µM (inactive)
- GI50 (MOLT-4): > 100 µM (inactive)
- GI50 (SF-268): > 100 µM (inactive)
- GI50 (UACC-257): > 100 µM (inactive)
- GI50 (ACHN): > 100 µM (inactive)
- GI50 (KM12): > 100 µM (inactive)
- GI50 (UACC-62): > 100 µM (inactive)
- GI50 (RXF 393): > 100 µM (inactive)
- GI50 (TK-10): > 100 µM (inactive)
- GI50 (IGROV-1): > 100 µM (inactive)
- GI50 (M14): > 100 µM (inactive)
- GI50 (NCI-H226): > 100 µM (inactive)
- GI50 (A549): > 100 µM (inactive)
- GI50 (MCF7): > 100 µM (inactive)
